# Assay results taken from BindingDB's records for doi:10.1016/j.bmc.2009.08.052 (Okayama University, 2009).
# Legend:
# [1] = target: Beta-hexosaminidase (Homo sapiens); assay: Inhibition of human placenta beta-N-acetylglucosaminidase by pNP-GlcNAc substrate hydrolysis assay
# [2] = target: Beta-hexosaminidase (Homo sapiens); assay: Mixed type inhibition of human placenta beta-N-acetylglucosaminidase by pNP-GlcNAc substrate hydrolysis assay
structure (smiles),measurement,setting,value
"CC(=O)NC[C@H]1[C@H](O)[C@H](O)[C@@H]2[C@H](O)C[C@@H](CO)N21 [(1R*, 3S*, 5S*, 6S*, 7R*, 7a S*)-5-acetamidomethyl-3-hydroxymethyl-1,6,7-trihydroxypyrrolizidine]",IC50,[1],2.39 nM
same,Ki,[2],1.25 nM
